Data published in the NIST ThermoML archive (doi:10.1021/je900661c).
“And” between values parts separate entries of the source, which are not always exact repeats. Equal values may be shown once. ± gives the expanded uncertainty stated by the source.

Test: molar heat capacity at constant pressure
Conditions: 5000 kPa, Liquid, thermal relaxation

SMILES | molar heat capacity at constant pressure (310 K) | molar heat capacity at constant pressure (315 K) | molar heat capacity at constant pressure (320 K) | molar heat capacity at constant pressure (325 K) | molar heat capacity at constant pressure (330 K) | molar heat capacity at constant pressure (335 K) | molar heat capacity at constant pressure (340 K) | molar heat capacity at constant pressure (345 K) | molar heat capacity at constant pressure (350 K)
CC(F)(F)F [1,1,1-trifluoroethane] | 136.15 ± 6.7 J/K/mol | 140.35 ± 7.6 J/K/mol | 145.39 ± 7.6 J/K/mol | 150.43 ± 7.6 J/K/mol | 155.47 ± 8.4 J/K/mol | 162.2 ± 8.4 J/K/mol | 173.96 ± 9.2 J/K/mol | 189.93 ± 10 J/K/mol and 192.45 ± 10 J/K/mol | 224.39 ± 12 J/K/mol
FCF [difluoromethane] | 106.65 ± 5.7 J/K/mol | 109.77 ± 5.7 J/K/mol | 113.41 ± 5.7 J/K/mol | 119.65 ± 6.2 J/K/mol | 125.9 ± 6.8 J/K/mol | 138.9 ± 7.3 J/K/mol | 164.39 ± 8.3 J/K/mol |  | 
FC(F)C(F)(F)F [pentafluoroethane] | 154.83 ± 8.4 J/K/mol | 159.63 ± 8.4 J/K/mol | 163.23 ± 8.4 J/K/mol | 171.63 ± 8.4 J/K/mol | 182.43 ± 9.6 J/K/mol and 183.63 ± 9.6 J/K/mol | 193.23 ± 9.6 J/K/mol | 217.24 ± 11 J/K/mol and 212.44 ± 11 J/K/mol | 242.44 ± 13 J/K/mol | 282.05 ± 14 J/K/mol
